Columns and labels:
[1] = method code SF, from DOI: 10.1016/0360-3016(89)90912-7, PMID: 2703384; details: pH 7.4
[2] = method code SF-AS, from DOI: 10.1021/jm00197a006, PMID: 533877
[3] = method code SF-AS, from DOI: 10.1002/ps.2780110406
[4] = not given; remark: listed apart in the source
[5] = not given; remark: listed apart in the source
[6] = not given; remark: listed apart in the source
[7] = not given; remark: listed apart in the source
[8] = method code SF, from DOI: 10.1002/jps.2600830714, PMID: 7965679
[9] = not given; remark: listed apart in the source
[10] = not given; remark: listed apart in the source
[11] = not given; remark: listed apart in the source
[12] = method code SF, from DOI: 10.1039/p29920000723
[13] = not given; remark: listed apart in the source
[14] = not given; remark: listed apart in the source
[15] = method code SF, from Kruglik, P.; Leschev, M.; Rakhman'ko, M.; Bubel, N.; Asratyan, V. (1991). Extraction of 1,2,4-triazole and its derivatives by organic solvents. 64(8)1721-1724.
[16] = method code SF-AS, from DOI: 10.1016/0378-5173(82)90004-7; details: pH 3.0
[17] = method code SF-GLC, from DOI: 10.1016/0166-445x(88)90052-5
[18] = not given; remark: listed apart in the source
[19] = method code SF-AS, from DOI: 10.1211/0022357001777513, PMID: 11186244; details: pH 7.3
[20] = method code SF-HPLC, from DOI: 10.1002/jlac.1995199512305
[21] = not given; remark: listed apart in the source
[22] = not given; remark: listed apart in the source
[23] = method code SF, from DOI: 10.1080/09553008714551831, PMID: 3497891; details: pH 7.4
[24] = not given; remark: listed apart in the source
[25] = method code SF-GLC, from DOI: 10.1016/s0045-6535(02)00841-x, PMID: 12615110
[26] = method code SF-RC, from DOI: 10.1021/es60170a013
[27] = method code SF-AS, from DOI: 10.1248/cpb.40.925

## O=[N+]([O-])c1cn(CC(F)CO)cn1 (configuration not stated)
[1]
  logD: -0.8

## Cc1nnc(/C=N/O)s1
[2]
  logP: 0.78

## CCOP(=O)(NC(C)C)Oc1ccc(SC)c(C)c1 (configuration not stated)
[3]
  logP: 3.18

## Cc1ccc(O)cc1
other
  logP: 2.03

## Nc1ccc(Cl)cc1Cl
[4]
  logP: 2.64

## C=CCOCCO
[5]
  logP: -0.1

## CC(Cl)CCl (configuration not stated)
[6]
  logP: 1.98

## Oc1c(O)c(Cl)c(Cl)c(Cl)c1Cl
[7]
  logP: 4.12

## O=NN(CCCl)C(=O)N[C@@H](Cc1ccccc1)C(=O)O
[8]
  logP: -0.28

## Cc1c2ccccc2c(C)c2c1ccc1ccccc12
[9]
  logP: 6.16

## Cn1ccc(=O)c(O)c1
[10]
  logP: -0.7

## COc1ccccn1
[11]
  logP: 1.23

## N#CCCCCOC(=O)c1ccccc1
[12]
  logP: 2.05

## O=c1cc(-c2ccccc2)oc2ccc3ccccc3c12
[13]
  logP: 4.94

## CC(C)COCCO
[5]
  logP: 0.75

## CC(C=CC1=C(C)C=CCC1(C)C)=CC=CC(C)=CCO
[14]
  logP: 7.41

## Clc1cc(Cl)c(Cl)c(Cl)c1
[3]
  logP: 4.68

## O=[N+]([O-])c1nc[nH]n1
[15]
  logP: -0.41

## CC(C)n1ccc(=O)c(O)c1
[10]
  logP: -0.02

## CC(C)=CCC1(C(C)(C)C)C(=O)NC(=O)NC1=O
[16]
  logD: 2.56

## ClCC1CO1 (configuration not stated)
[17]
  logP: 0.45

## O=[N+]([O-])c1nccn1CC(F)CO (configuration not stated)
[1]
  logD: -0.38

## c1ccc2cc3c(ccc4ccccc43)cc2c1
[11]
  logP: 5.93

## CC(C)(CO)[C@@H](O)C(=O)NCCC(=O)O
[14]
  logP: -1.69

## CC(=O)OCC1OC(OC(C)=O)C(NC(=O)C(C)NC(=O)N(CCCl)N=O)C(OC(C)=O)C1OC(C)=O (configuration not stated)
[8]
  logP: 0.71

## CCOP(=S)(OCC)Oc1cccc(F)n1
[3]
  logP: 3.51

## Clc1ccc(-c2ccccc2)cc1Cl
[18]
  logP: 5.11

## OCC(O)COc1c(F)cc(-c2c3nc(c(-c4cc(F)c(OCC(O)CO)c(F)c4)c4ccc([nH]4)c(-c4cc(F)c(OCC(O)CO)c(F)c4)c4nc(c(-c5cc(F)c(OCC(O)CO)c(F)c5)c5ccc2[nH]5)C=C4)C=C3)cc1F (configuration not stated)
[19]
  logD: 2.61

## OCC(O)COc1cccc(-c2c3nc(c(-c4cccc(OCC(O)CO)c4)c4ccc([nH]4)c(-c4cccc(OCC(O)CO)c4)c4nc(c(-c5cccc(OCC(O)CO)c5)c5ccc2[nH]5)C=C4)C=C3)c1 (configuration not stated)
[19]
  logD: 4.83

## Cc1cn(C2CC(N=[N+]=[N-])C(COP(=O)(OCC3OC(n4cc(C)c(=O)[nH]c4=O)CC3N=[N+]=[N-])C(O)c3ccc([N+](=O)[O-])cc3)O2)c(=O)[nH]c1=O (configuration not stated)
[20]
  logP: 0.83

## Oc1ccc(-c2c3nc(c(-c4ccc(O)cc4)c4ccc([nH]4)c(-c4ccc(O)cc4)c4nc(c(-c5ccc(O)cc5)c5ccc2[nH]5)C=C4)C=C3)cc1
[19]
  logD: 4.77

## O=S1CCCC1
[21]
  logP: -0.96

## O=C(O)c1snc(Cl)c1Cl
[22]
  logP: 1.44

## COCCO
[5]
  logP: -0.61

## COCC(O)Cn1ncc([N+](=O)[O-])n1 (configuration not stated)
[23]
  logD: -0.1

## ClCc1cccc(CCl)c1
[4]
  logP: 2.72

## NC(=S)Nc1cccc2ccccc12
[13]
  logP: 1.66

## ClC(Cl)=C(Cl)C(Cl)=C(Cl)Cl
[4]
  logP: 4.74

## Cc1ccc(O)c(C)c1
[18]
  logP: 2.48

## ClC=C(Cl)Cl
[6]
  logP: 2.67

## OCc1ccccc1F
[24]
  logP: 1.3

## Brc1cc(Br)c(Oc2cc(Br)c(Br)cc2Br)c(Br)c1
[25]
  logP: 7.82

## ClC(Cl)C(Cl)Cl
[26]
  logP: 2.39

## COC(=O)c1cc2ccccc2o1
[27]
  logP: 2.53

## OCC1CO1 (configuration not stated)
[17]
  logP: -0.95

## OCc1ccc(Br)cc1
[24]
  logP: 2.15

## COc1ccc(C(O)P(=O)(OCC2OC(n3cc(C)c(=O)[nH]c3=O)CC2N=[N+]=[N-])OCC2OC(n3cc(C)c(=O)[nH]c3=O)CC2N=[N+]=[N-])cc1 (configuration not stated)
[20]
  logP: 0.72
